Measurements: patent US6875792B2, “Dosage form of L-Methionine S-Sulfoximine” (MSO Pharma LLC, priority 2002, dated 2005)
Like-named read-outs stand apart in the source and are kept apart here.

Tests used:
[1] = low doses
Text: As stated above, one unfortunate and well known side effect of MSO is that it is a convulsant.

glutamine synthetase [2] = target: T1, glutamine synthetase (Rattus norvegicus, UniProt P09606); conditions: low dose intravenous, 24 hours prior to sacrifice
Experimental: (§1) The Hawkins data is represented with closed circles whereas the comparison tested rats are represented with “+” and open circle symbols. The monkey results are shown with triangles. N represents the number of animals studied.
(§2) The monkeys who received LSMSO at doses of 5 and 10 mg/kg were anesthetized for a four hour period prior to sacrifice.

glutamine synthetase [3] = target: T1, glutamine synthetase; conditions: cited from earlier work
[4] = cited from earlier work
glutamine synthetase [5] = target: T1, glutamine synthetase; conditions: MSO pretreatment, cited from earlier work
[6] = cited from earlier work; remark: listed apart in the source
[7] = portacaval anastomosis rats infused with ammonium acetate, 150 mg/kg pretreatment; cited from earlier work
[8] = target: cortical glutamine synthetase (Rattus norvegicus, UniProt P09606); conditions: model of acute hyperammonemia; cited from earlier work
glutamine synthetase [9] = conditions: cited from earlier work
[10] = target: γ-glutamylcysteine synthetase (Rattus norvegicus, UniProt P19468); conditions: cited from earlier work
[11] = cited from earlier work; remark: listed apart in the source
[12] = rats, cited from earlier work; for paroxysmal symptoms: 100 mg/kg and 50 mg/kg, 20 hours; for brain glutamine level versus paroxysmal dose: 100 and 50 mg/kg vs 200 mg/kg, 20 hours after administration
glutamine synthetase [13] = target: glutamine synthetase (Macaca mulatta, UniProt F7CAM5)
Experimental: as §1, §2

[14] = mice; cited from earlier work
[15] = rats vs dogs; cited from earlier work
[16] = target: T2, gamma glutamyl cysteine synthetase (Rattus norvegicus, UniProt P19468); conditions: cited from earlier work
T2 construct: host or cells: rat brain in vivo
T2 sequence (P19468 1-637): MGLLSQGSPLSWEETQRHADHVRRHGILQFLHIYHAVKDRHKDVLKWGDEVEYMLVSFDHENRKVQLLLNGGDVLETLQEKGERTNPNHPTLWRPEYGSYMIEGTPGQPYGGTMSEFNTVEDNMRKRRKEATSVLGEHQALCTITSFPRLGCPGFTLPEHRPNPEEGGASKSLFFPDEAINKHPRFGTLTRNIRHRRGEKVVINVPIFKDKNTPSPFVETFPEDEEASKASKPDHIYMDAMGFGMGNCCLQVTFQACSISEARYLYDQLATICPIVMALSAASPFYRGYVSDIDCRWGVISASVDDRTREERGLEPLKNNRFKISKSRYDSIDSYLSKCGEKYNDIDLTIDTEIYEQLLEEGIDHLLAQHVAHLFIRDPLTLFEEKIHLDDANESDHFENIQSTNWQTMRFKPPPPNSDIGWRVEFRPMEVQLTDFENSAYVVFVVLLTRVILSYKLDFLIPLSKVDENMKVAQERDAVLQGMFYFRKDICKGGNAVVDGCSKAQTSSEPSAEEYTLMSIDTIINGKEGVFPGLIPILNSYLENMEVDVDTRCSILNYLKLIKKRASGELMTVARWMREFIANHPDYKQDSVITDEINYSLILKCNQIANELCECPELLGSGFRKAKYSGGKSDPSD

[17] = rats; did not affect MSO's inhibition of GS; cited from earlier work

T1 sequence (P09606 2-373 limits assumed): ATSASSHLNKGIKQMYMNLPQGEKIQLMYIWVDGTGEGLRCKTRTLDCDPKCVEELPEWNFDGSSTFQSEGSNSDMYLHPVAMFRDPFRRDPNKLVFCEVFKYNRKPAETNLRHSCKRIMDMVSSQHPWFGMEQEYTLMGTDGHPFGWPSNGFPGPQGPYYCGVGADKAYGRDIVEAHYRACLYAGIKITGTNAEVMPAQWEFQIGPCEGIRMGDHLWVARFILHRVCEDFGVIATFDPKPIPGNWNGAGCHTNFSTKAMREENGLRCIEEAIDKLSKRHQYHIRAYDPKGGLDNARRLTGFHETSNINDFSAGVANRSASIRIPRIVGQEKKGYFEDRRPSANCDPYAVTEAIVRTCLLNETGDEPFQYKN
Chain of cortical glutamine synthetase (P09606 2-373 limits assumed): as above
Chain of glutamine synthetase (Macaca mulatta, UniProt F7CAM5) (F7CAM5 1-373): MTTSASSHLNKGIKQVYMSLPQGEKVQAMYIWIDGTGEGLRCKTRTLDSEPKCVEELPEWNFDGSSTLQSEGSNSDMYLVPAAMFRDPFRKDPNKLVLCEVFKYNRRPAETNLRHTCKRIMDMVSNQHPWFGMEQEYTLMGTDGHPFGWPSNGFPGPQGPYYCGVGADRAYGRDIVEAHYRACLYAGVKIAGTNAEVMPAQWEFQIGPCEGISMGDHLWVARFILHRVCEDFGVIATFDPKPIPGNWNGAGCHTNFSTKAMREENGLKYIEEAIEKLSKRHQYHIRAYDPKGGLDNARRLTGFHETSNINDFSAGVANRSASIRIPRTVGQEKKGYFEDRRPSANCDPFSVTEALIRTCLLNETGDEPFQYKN
Chain of γ-glutamylcysteine synthetase (P48508 whole entry partner, one chain of several): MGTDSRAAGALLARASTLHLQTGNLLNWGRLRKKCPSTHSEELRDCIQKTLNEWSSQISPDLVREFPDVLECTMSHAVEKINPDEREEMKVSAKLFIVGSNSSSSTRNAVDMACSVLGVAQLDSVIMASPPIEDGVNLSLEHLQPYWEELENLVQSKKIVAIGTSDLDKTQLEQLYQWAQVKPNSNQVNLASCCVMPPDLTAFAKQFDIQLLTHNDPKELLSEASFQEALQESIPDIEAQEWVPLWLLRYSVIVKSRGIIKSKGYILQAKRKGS

## CS(=N)(=O)CC[C@H](N)C(=O)O (stereo partly drawn) [LSMSO, L-methionine S-sulfoximine]
[1]
  brain glutamine levels: lowered
[1]; LSMSO alone
  seizures: no seizures
Glutamine synthetase [2]
  state of the rats prior to sacrifice: awake and asymptomatic
Glutamine synthetase [3]; rats, doses of less than 20 mg/kg
  glutamine synthetase inhibition at low doses: dramatic decrease

## CS(=N)(=O)CC[C@H](N)C(=O)O (some centres unmarked) [MSO, methionine sulfoximine]
[4]; cats and rats
  most effective dosage for episodic running behavior to repeated sounds: 7.5 mg/kg
[4]; cats, 10 mg/kg
  effect at 10 mg/kg: early convulsive episodes
[4]; cats
  amounts that did not render cats susceptible: less than 5 mg/kg
Glutamine synthetase [5]; group IV hyperammonemic rats
  cortical glutamine levels: did not increase
Glutamine synthetase [5]; within the brain
  inhibition of glutamine synthetase activity: 64%
[6]; monkeys vs dogs
  resistance to MSO relative to dogs: approximately 100 times
[7]
  brain edema: ameliorated
  intracranial pressure: did not rise
[8]
  inhibition of cortical glutamine synthetase: 64%
  prevented increase in cortical glutamine concentration: 13 mmol/kg
Glutamine synthetase [9]; brain, 72 hours
  inhibition at 72 hours: remains to a considerable degree
Glutamine synthetase [9]; brain
  persistence of inhibitory effect on glutamine synthetase: a long as seven days
Glutamine synthetase [9]; single injection
  time of maximal inhibition in the brain: 24 h
[10]
  inhibition of γ-glutamylcysteine synthetase: effective inhibitor
[11]; patients with far-advanced, nonresectable cancer
  tumor regression: no evidence of tumor regression
[11]; patients, divided doses every 6 or 8 hours
  hepatic or renal function or hematological status: no change
[12]
  paroxysmal symptoms: did not differ in any way from the control animals
  brain glutamine level versus paroxysmal dose: decreased to the same degree
[12]; listed as MSI
  paroxysmal symptoms: no paroxysmal symptoms
  brain glutamine level versus paroxysmal dose: reduced to the same degree
[12]; 200 mg/kg
  seizures at highest dose: had seizures
Glutamine synthetase [13]; one monkey, 2.5 mg/kg, 24 hour period prior to sacrifice
  activity and appetite: normal
Glutamine synthetase [13]; primates compared to rats, low doses, FIG. 1
  sensitivity to the glutamine synthetase inhibiting effect: more sensitive
Glutamine synthetase [3]; rats, 5 to 200 mg/kg intraperitoneal
  glutamine synthetase activity: decreased in proportion to the dose
Glutamine synthetase [3]; rats, 5 to 200 mg/kg intraperitoneal, except at the highest dose of 200 mg/kg
  toxicity: no evidence of toxicity
Glutamine synthetase [3]; single intraperitoneal injection
  time to raised brain concentration of ammonia: ≤ 2 h
[14]
  in vivo ammonia toxicity: marked decrease
[15]
  resistance to MSO relative to dogs: approximately 100 times

## CCCCS(=N)(=O)CCC(N)C(=O)O (centres unmarked) [buthionine sulfoximine]
[16]
  hyperammonemic brain swelling: did not prevent

## CSCC[C@H](N)C(=O)O [methionine]
[17]
  protection from the convulsant effect of MSO: protected
[6]; monkeys and dogs
  MSO-induced seizures on administration of methionine: suppressed
